The results in this text go back to article PMC6629785, “Synthesis and Pharmacological Evaluation of a Novel Peptide Based on Anemonia sulcata BDS-I Toxin as a New KV3.4 Inhibitor Exerting a Neuroprotective Effect Against Amyloid-β Peptide” (Frontiers in Chemistry, 2019).

Ends that are not written are not given here.

The test deals with T1, KV3.4 channels (Homo sapiens, UniProt Q03721).
T1 construct: expressed in transfected cells; host or cells: CHO cells, transient transfection with Lipofectamine 2000; cDNAs provided by Professor Goldstein, University of Chicago
T1 sequence (Q03721 1-635): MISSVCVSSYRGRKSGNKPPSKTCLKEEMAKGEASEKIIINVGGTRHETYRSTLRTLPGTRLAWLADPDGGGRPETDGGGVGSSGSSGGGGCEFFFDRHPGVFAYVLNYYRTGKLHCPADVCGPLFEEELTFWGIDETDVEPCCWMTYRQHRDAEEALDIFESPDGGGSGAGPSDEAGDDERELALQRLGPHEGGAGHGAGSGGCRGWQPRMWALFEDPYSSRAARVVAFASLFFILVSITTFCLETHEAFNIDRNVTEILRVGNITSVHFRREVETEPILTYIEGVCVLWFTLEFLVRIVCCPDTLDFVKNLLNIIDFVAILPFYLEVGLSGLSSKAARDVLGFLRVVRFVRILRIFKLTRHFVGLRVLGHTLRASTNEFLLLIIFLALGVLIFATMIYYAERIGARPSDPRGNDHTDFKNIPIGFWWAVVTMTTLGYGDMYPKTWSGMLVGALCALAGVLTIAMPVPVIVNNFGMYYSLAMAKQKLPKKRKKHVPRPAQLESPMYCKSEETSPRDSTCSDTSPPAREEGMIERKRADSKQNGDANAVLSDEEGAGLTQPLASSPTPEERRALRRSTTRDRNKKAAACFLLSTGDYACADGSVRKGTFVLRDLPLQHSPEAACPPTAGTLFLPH
T1 sequence (Q9Y6H6 1-103 partner): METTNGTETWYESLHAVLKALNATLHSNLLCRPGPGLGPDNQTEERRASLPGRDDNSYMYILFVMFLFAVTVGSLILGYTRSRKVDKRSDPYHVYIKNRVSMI
Description: Whole-cell patch clamp of Kv3.4 currents in CHO cells transiently transfected with Kv3.4/MiRP2. Format: cell-based. The note with it: for percentage of inhibition of Kv3.4 currents: acute application in extracellular solution, peak of depolarizing pulse +60 mV, [(C0-C1)/C0] x 100, mean of 6 to 10 cells, three sessions. How it is done:
KV3.4 and MiRP2 channel subunits were expressed in Chinese hamster ovary (CHO) cells by transient transfection. CHO cells were grown in 100 mm plastic Petri dishes in Dulbecco's Modified Eagle Medium containing 10% fetal bovine serum (FBS), non-essential amino acids (0.1 mm), penicillin (50 U/ml), and streptomycin (50 μg/ml) in a humidified atmosphere at 37°C with 5% CO2 (Miceli et al., [2015]). KV3.4 and MiRP2 cDNAs were kindly provided by the Professor Goldstein of the Department of Pediatrics and Institute for Molecular Pediatric Sciences, University of Chicago, USA. For electrophysiological experiments, cells were seeded on glass cover-slips (Glaswarenfabrik Karl Hecht KG, Sondheim, Germany) coated with poly-L-lysine (50 μg/mL) and transfected the next day with the appropriate cDNAs using Lipofectamine 2000 according to guidelines for transfection. We performed electrophysiological experiments 48 h after transfection.
Currents from CHO cells were recorded at room temperature 1-2 days after transfection. The extracellular solution contained the following (in mM): 138 NaCl, 5.4 KCl, 2 CaCl2, 1 MgCl2, 10 glucose and 10 HEPES, adjusted pH 7.4 with NaOH. The pipette solution contained (in mM) the following: 140 KCl, 2 MgCl2, 10 EGTA, 10 HEPES, 5 Mg-ATP, adjusted pH 7.4 with KOH (Miceli et al., [2015]). KV3.4 currents were measured by applying voltage steps from −100 mV to +60 mV from a holding potential of −80 mV (Abbott et al., [2001]). Moreover, the total outward K^+ currents were recorded in NGF-differentiated PC-12 cells using the extracellular solution contained the following (in mM): 150 NaCl, 5.4 KCl, 3 CaCl2, 1 MgCl2, 10 HEPES, adjusted pH 7.4 with NaOH. The pipette solution contained the following (in mM): 140 KCl, 2 MgCl2, 10 HEPES, 10 glucose, 10 EGTA, and 1 Mg-ATP adjusted at pH 7.4 with KOH (Diochot et al., [1998]). All experiments were performed in the presence of 50 nM tetrodotoxin (TTX) and 10 μ M nimodipine in the extracellular solution. To discriminate K^+ current components appropriate electrophysiological protocols were used (Pannaccione et al., [2007]). Steady-state activation and inactivation properties were measured by using appropriate protocols (Pannaccione et al., [2005]). Capacitive currents were elicited by 5-mV depolarizing pulses from −80 mV and acquired at a sampling rate of 50 kHz. The capacitance of the membrane was calculated according to the following equation: Cm = τc·Io/ΔEm (1-I∞/Io), where Cm is membrane capacitance, τc is the time constant of the membrane capacitance, Io is the maximum capacitance current value, ΔEm is the amplitude of the voltage step, and I∞ is the amplitude of the steady-state current. K^+ currents were recorded by patch-clamp technique in CHO and NGF-differentiated PC-12 cells using a commercially available amplifier (Axopatch 200B, Molecular Devices) and Digidata 1322A interface (Molecular Devices, USA). The whole-cell configuration of the patch-clamp technique was adopted using glass micropipettes with a resistance of 2.5-5.0 MΩ. Data were acquired and analyzed using the pClamp software (version 9, Molecular Devices).
For the acute treatment, each peptide has been added in the extracellular solution. For each cell, we first recorded K^+ currents as previously described, in the absence of peptides. After that, we switched from the extracellular solution without BDS-I peptides to the extracellular solution containing the BDS-I peptide. In these conditions, we recorded K^+ currents until the steady-state was reached. This protocol has been performed to test the effect on KV3.4 currents of each BDS-I fragment as well as of BDS-I[1-8scr].
To identify the smallest BDS-I amino acid sequence able to block Kv3.4 activity, we evaluated the effect of the newly synthesized BDS-I fragments in CHO cells transiently transfected with Kv3.4/MiRP2, by patch clamp technique in whole cell configuration. […]

[1] abbreviates: peptide 100 nM, CHO cells transfected with Kv3.4/MiRP2.

As to AAPAFASG [BDS-I[1-8]], the “effect on steady-state parameters for activation and inactivation of Kv3.4 currents” value (100 nM, Boltzmann fit) is recorded as “did not modify”. Also, under “100 nM, currents at peak of repetitive (20 sec) depolarizing pulses (+60 mV)”, the “time of peptide exposure at which steady-state of inhibition was reached” value is 150 s. Moreover, for the setting “100 nM, peak current before and during application, pulses from +60 to −100 mV”, the “voltage dependence of Kv3.4 current inhibition (I-V relationship)” value was “not voltage-dependent”. Where the note is “CHO cells transiently transfected with KV3.4/MiRP2, inhibitory dose-response curve, % of inhibition normalized to controls”, the IC50 (as a rule, the concentration at which inhibition is half-maximal) was 75 nM. Besides, the “percentage of inhibition of Kv3.4 currents” value under setting [1] is recorded as “more than 80%”.
As to H-GSAFAPAA-OH [BDS-I[1-8scr]], where the note is “peptide 100 nM, acute application, CHO cells transfected with Kv3.4/MiRP2, whole-cell patch clamp”, the “ability to inhibit Kv3.4 currents (in words)” value is on record as “not able to modify KV3.4 activity”.
For blood depressing substance-I [BDS-I], the “percentage of inhibition of Kv3.4 currents” value under setting [1] was ~ 60%.
